Source: article PMC5379127, “Plackett-Burman Design for rGILCC1 Laccase Activity Enhancement in Pichia pastoris: Concentrated Enzyme Kinetic Characterization” (Enzyme Research, 2017)

System: T1, rGILCC1 laccase (GlLCC1)
T1 construct: previously optimized synthetic gene in pGAPZalphaA (pGAPZαA-LacGluc-Stop, also pGAPZαA-GlucPost-Stop, clone 1), secreted by Pichia pastoris X33; concentrated culture supernatant (10 kDa membrane), not purified
Assay: spectrophotometric ABTS oxidation at […] nm, Hanes-Woolf
Assay type: biochemical, Ganoderma lucidum
Details: concentrated culture supernatant, not pure enzyme; 600 mM sodium acetate buffer, pH 4.5, 25°C; read-out: apparent Km

CCn1c(=NN=c2sc3cc(S(=O)(=O)O)ccc3n2CC)sc2cc(S(=O)(=O)O)ccc21 [ABTS, 2,20-azino-bis(3-ethylbenzothiazoline-6-sulphonic acid)]
Km: 53.6 µM
